Laboratory results reported in US11319303B2 (WIGEN BIOMEDICINE TECHNOLOGY (SHANGHAI) CO., LTD., priority 2017, dated 2022).
pIC50: −log10 of the molar value. Like-named read-outs stand apart in the source and are kept apart here.

Target: LC3B (Homo sapiens, UniProt Q9GZQ8)
Assay: Fluorescence Polarization (FP) Assay: displacement of FITC-labeled peptide from GST-LC3B
Assay type: binding
Experimental: The compounds of the present invention for regulating the autophagy-related protein LC3B were tested by Fluorescence Polarization (FP) Assay.
Fluorescence Polarization (FP) Assay Test

[1] = Fluorescence Polarization assay, GST-LC3B 180 nM, FITC-labeled peptide 18 nM, 25° C., read-out: IC50

SMILES	pIC50 [1]	pIC50
CC1(C)OC(=O)C(=CNCCN2CCN(CCO)CC2)C(=O)O1 [Compound 1, 5-(((2-(4-(2-hydroxyethyl)piperazin-1-yl)ethyl)amino)methylene)-2,2-dimethyl-1,3-dioxane-4,6-dione]	3.00 to 4.00	–
NC=C1C(=O)CC(c2ccccc2)CC1=O (centres unmarked) [Compound 2, 2-(aminomethylene)-5-phenylcyclohexane-1,3-dione]	4.82 to 5.52	–
CSC=C1C(=O)CC(c2ccccc2)CC1=O (centres unmarked) [Compound 4A, 2-((methylthio)methylene)-5-phenylcyclohexane-1,3-dione]	4.82 to 5.52	–
O=C1CC(c2ccccc2)CC(=O)C1=CNc1cccnc1 (centres unmarked) [Compound 7, 5-phenyl-2-((pyridin-3-ylamino)methylene) cyclohexane-1,3-dione]	4.82 to 5.52	–
O=C1CC(c2ccccc2)CC(=O)C1=CNCCN1CCN(CCO)CC1 (centres unmarked) [Compound 8, 2-(((2-(4-(2-hydroxyethyl)piperazin-1-yl)ethyl)amino)methylene)-5-phenylcyclohexane-1,3-dione]	> 5.52	–
O=C1C(=CNCCN2CCN(CCO)CC2)C(=O)c2ccccc21 [Compound 9, 2-(((2-(4-(2-hydroxyethyl)piperazin-1-yl)ethyl)amino)methylene)-1H-indene-1,3(2H)-dione]	3.00 to 4.00	–
CN1C(=O)C(=CNCCN2CCN(CCO)CC2)C(=O)N(C)C1=O [Compound 10, 5-(((2-(4-(2-hydroxyethyl)piperazin-1-yl)ethyl)amino)methylene)-1,3-dimethylpyrimidine-2,4,6(1H,3H,5H)-trione]	–	3.00 to 4.00
O=C1CCCC(=O)C1=CNCCN1CCN(CCO)CC1 [Compound 11, 2-(((2-(4-(2-hydroxyethyl)piperazin-1-yl)ethyl)amino)methylene) cyclohexane-1,3-dione]	3.00 to 4.00	–
O=C1COCC(=O)C1=CNCCN1CCN(CCO)CC1 [Compound 12, 4-(((2-(4-(2-hydroxyethyl)piperazin-1-yl)ethyl)amino)methylene)-2H-pyran-3,5(4H,6H)-dione]	3.00 to 4.00	–
CC1CC(=O)C(=CNCCN2CCN(CCO)CC2)C(=O)C1 (centres unmarked) [Compound 14, 2-(((2-(4-(2-hydroxyethyl)piperazin-1-yl)ethyl)amino)methylene)-5-methylcyclohexane-1,3-dione]	3.00 to 4.00	–
COc1cc(OC)c2c(c1Cl)O[C@@]1(C(=O)/C(=C\NCCN3CCN(CCO)CC3)C(=O)C[C@H]1C)C2=O [Compound 15, (2R,6′R)-7-chloro-3′-(((2-(4-(2-hydroxyethyl)piperazin-1-yl)ethyl)amino)methylene)-4,6-dimethoxy-6′-methyl-3H-spiro[benzofuran-2,1′-cyclohexane]-2′,3,4′-trione]	4.82 to 5.52	–
O=C1CC(c2ccnc3[nH]ccc23)CC(=O)C1=CNCCN1CCN(CCO)CC1 (centres unmarked) [Compound 17, 2-(((2-(4-(2-hydroxyethyl)piperazin-1-yl)ethyl)amino)methylene)-5-(1H-pyrrolo[2,3-b]pyridin-4-yl)cyclohexane-1,3-dione]	4.82 to 5.52	–
O=C1CC(c2c[nH]c3ncccc23)CC(=O)C1=CNCCN1CCN(CCO)CC1 (centres unmarked) [Compound 18, 2-(((2-(4-(2-hydroxyethyl)piperazin-1-yl)ethyl)amino)methylene)-5-(1H-pyrrolo[2,3-b]pyridin-3-yl)cyclohexane-1,3-dione]	4.82 to 5.52	–
COCCn1ccc2c(C3CC(=O)C(=CNCCN4CCN(CCO)CC4)C(=O)C3)ccnc21 (centres unmarked) [Compound 19, 2-(((2-(4-(2-hydroxyethyl)piperazin-1-yl)ethyl)amino)methylene)-5-(1-(2-methoxyethyl)-1H-pyrrolo[2,3-b]pyridin-4-yl)cyclohexane-1,3-dione]	4.00 to 4.82	–
O=C1CC(c2cnc3c(ccc4cccnc43)c2)CC(=O)C1=CNCCN1CCN(CCO)CC1 (centres unmarked) [Compound 20, 2-(((2-(4-(2-hydroxyethyl)piperazin-1-yl)ethyl)amino)methylene)-5-(1,10-phenanthrolin-3-yl)cyclohexane-1,3-dione]	3.00 to 4.00	–
O=C1CC(c2ccc(Sc3ccccc3)cc2)CC(=O)C1=CNCCN1CCN(CCO)CC1 (centres unmarked) [Compound 21, 2-(((2-(4-(2-hydroxyethyl)piperazin-1-yl)ethyl)amino)methylene)-5-(4-(phenylthio)phenyl) cyclohexane-1,3-dione]	4.00 to 4.82	–
Cn1nnc(-c2ccc(C3CC(=O)C(=CNCCN4CCN(CCO)CC4)C(=O)C3)cc2)n1 (centres unmarked) [Compound 22, 2-(((2-(4-(2-hydroxyethyl)piperazin-1-yl)ethyl)amino)methylene)-5-(4-(2-methyl-2H-tetrazol-5-yl)phenyl) cyclohexane-1,3-dione]	3.00 to 4.00	–
COc1cc(C2CC2)c(C2CC(=O)C(=CNCCN3CCN(CCO)CC3)C(=O)C2)cc1OC (centres unmarked) [Compound 23, 5-(2-cyclopropyl-4,5-dimethoxyphenyl)-2-(((2-(4-(2-hydroxyethyl)piperazin-1-yl)ethyl)amino)methylene) cyclohexane-1,3-dione]	4.82 to 5.52	–
O=C1CC(c2c[nH]c3cccc(F)c23)CC(=O)C1=CNCCN1CCN(CCO)CC1 (centres unmarked) [Compound 24, 5-(4-fluoro-1H-indol-3-yl)-2-(((2-(4-(2-hydroxyethyl)piperazin-1-yl)ethyl)amino)methylene) cyclohexane-1,3-dione]	> 5.52	–
O=C1CC(c2cnc3c(N4CCOCC4)nccn23)CC(=O)C1=CNCCN1CCN(CCO)CC1 (centres unmarked) [Compound 25, 2-(((2-(4-(2-hydroxyethyl)piperazin-1-yl)ethyl)amino)methylene)-5-(8-morpholinoimidazo [1,2-a]pyrazin-3-yl) cyclohexane-1,3-dione]	3.00 to 4.00	–
COc1cc2ncnc(C3CC(=O)C(=CNCCN4CCN(CCO)CC4)C(=O)C3)c2cc1OC (centres unmarked) [Compound 26, 5-(6,7-dimethoxyquinazolin-4-yl)-2-(((2-(4-(2-hydroxyethyl)piperazin-1-yl)ethyl)amino)methylene) cyclohexane-1,3-dione]	4.00 to 4.82	–
O=C1CC(c2ncnc3sccc23)CC(=O)C1=CNCCN1CCN(CCO)CC1 (centres unmarked) [Compound 27, 2-(((2-(4-(2-hydroxyethyl)piperazin-1-yl)ethyl)amino)methylene)-5-(thieno[2,3-d]pyrimidin-4-yl)cyclohexane-1,3-dione]	4.00 to 4.82	–
Cc1ccccc1C1CC(=O)C(=CNCCN2CCN(CCO)CC2)C(=O)C1 (centres unmarked) [Compound 28, 2-(((2-(4-(2-hydroxyethyl)piperazin-1-yl)ethyl)amino)methylene)-5-(o-tolyl)cyclohexane-1,3-dione]	4.82 to 5.52	–
CC1(c2ccccc2)CC(=O)C(=CNCCN2CCN(CCO)CC2)C(=O)C1 (centres unmarked) [Compound 29, 2-(((2-(4-(2-hydroxyethyl)piperazin-1-yl)ethyl)amino)methylene)-5-methyl-5-phenylcyclohexane-1,3-dione]	3.00 to 4.00	–
CC1(C)O[C@@H]2[C@H](O1)[C@@H](C1CC(=O)C(=CNCCN3CCN(CCO)CC3)C(=O)C1)O[C@H]2n1cnc2c(N3CCOCC3)ncnc21 (stereo partly drawn) [Compound 30, 5-((3aR,4R,6R,6aR)-2,2-dimethyl-6-(6-morpholino-9H-purin-9-yl)tetrahydrofuro[3,4-d][1,3]dioxol-4-yl)-2-(((2-(4-(2-hydroxyethyl)piperazin-1-yl)ethyl)amino)methylene) cyclohexane-1,3-dione]	3.00 to 4.00	–
O=C1CC(COc2ccccc2)CC(=O)C1=CNCCN1CCN(CCO)CC1 (centres unmarked) [Compound 31, 2-(((2-(4-(2-hydroxyethyl)piperazin-1-yl)ethyl)amino)methylene)-5-(phenoxymethyl) cyclohexane-1,3-dione]	4.82 to 5.52	–
